Laboratory results taken from patent US10167261B2, “2-oxo-3,4-dihydroquinolin-6-yl sulphonamide CPDS and their use as plant growth regulators” (THE REGENTS OF THE UNIVERSITY OF CALIFORNIA, priority 2014, dated 2019).

What was measured:
[1] = tested on: corn plants (variety NK OCTET); experiment: Water use (WU) of corn plants after foliar spray; format: in vivo; conditions: foliar spray at 500 μM, vs negative control; for Total % WU 0 to 2 DAA: cumulative
Experimental: Compounds were tested for their effect on reducing plant water use as follows. The compounds were applied by foliar spray to 12 day old corn plants (variety NK OCTET) grown in controlled environment plant growth chambers. All compounds were applied using an emulsifiable concentrate (EC) formulation that was diluted to the desired concentrations with water containing 0.4% of the adjuvant rape seed methyl ester. Plant water use during the day was assessed by repeated weighing of the pots in which the plants were grown before and after application of the compounds at the indicated times (expressed in days after application (DAA)). The water use data before application was used to correct any differences in water use arising due to non-treatment effects (e.g. due to differences in plant size). The untransformed water use values were subjected to an analysis of covariance, fitting the effect of treatment and using the baseline water use 1 day before application as a covariate. Application of the chemicals (0 DAA) takes place approximately between 8 to 9:30 a.m. WU is measured within day time (chamber light is on 6:00 to 20:00) at these timepoints: 0 DAA AM (10:30-12:50) and 0 DAA PM (14:00-19:50), 1 DAA AM (7:30-12:50) and 1 DAA PM (14:00-19:50) and 2 DAA AM (7:30-12:50). The cumulative total WU (0-2 DAA) is calculated by summing the WU data mentioned above.

[2] = molecular target: PYL2-HAB1 (Arabidopsis thaliana (Mouse-ear cress), UniProt O80992); experiment: PP2C activity assay, PYL2-HAB1; format: biochemical; conditions: 100 nM PP2C, 200 nM PYR/PYL protein, 4-nitrophenyl phosphate substrate; read-out: IC50 of inhibition of PYL2-HAB1
From the text: (§1) The protein HAB1, a type 2 protein phosphatase (PP2C), is inhibited by PYR/PYL proteins in dependence of abscisic acid or other receptor agonists. The potency of a receptor agonists correlates with the level of inhibition of the PP2C, and therefore the IC50 (PYR1-HAB1) can be used to compare the relative activity of different chemical analogues. Since inhibition of PP2C correlates to inhibition of seed-germination and increase in plant water-use efficiency, it serves as a powerful tool to quantify biological potential of a chemical acting as an analogue of abscisic acid.
(§2) HAB1 and PYL proteins were expressed and purified as described in Park et al. ((2009) Science 324(5930):1068-1071), with minor modifications. To obtain GST-HAB1, the HAB1 cDNA was cloned into pGex-2T. Expression was conducted in BL21[DE3]pLysS host cells. Transformed cells were pre-cultured overnight, transferred to LB medium and cultured at 30° C. to culture A600 of ˜0.5.
(§3) The culture was then cooled on ice and MnCl2 added to 4 mM and IPTG added to 0.3 mM. After 16 hours incubation at 15° C., cells were harvested and recombinant proteins were purified on glutathione agarose as described in Park et al. To obtain 6×His-PYL receptor fusion proteins, expression constructs previously described by Okamoto et al. 2013, (PNAS 110(29): 12132-12137) were used. ABA receptors were expressed and purified as described above.
(§4) For the values shown in Table B5, PP2C activity assays using recombinant receptors and PP2Cs were carried out as follows: purified proteins were pre-incubated in 160 μl assay buffer containing 100 mM Tris-HCl-pH7.9, 100 mM NaCl, 3 μg bovine serum albumin, 0.1% 2-mercaptoethanol, 1 mM MnCl2 with ABA or agonists (compounds of the present invention) for 30 minutes at room temperature. Reactions were started by adding 40 μL of a reaction solution containing 25 mM 4-nitrophenyl phosphate in assay buffer after which absorbance measurements were immediately collected using a 405 nm on Wallac plate reader. Reactions contained 100 nM PP2C and 200 nM PYR/PYL proteins. […] For inferring IC50 values, calculations from receptor/PP2C assays containing different concentrations (ranging from 1 μM to 4 nM) were. The obtained dose response data was fit to a log (inhibitor) versus response-(variable slope) model using non-linear regression to infer the IC50s, using Graph Pad Prism 6.0.

[3] = tested on: soybean plants (variety S20-G7); experiment: Water use (WU) of soybean plants after foliar spray; format: in vivo; conditions: repeated experiment (Table B2), rate not given; for Total % WU 0 to 2 DAA: cumulative
Experimental: Chemicals were tested for their effect on reducing plant water use (WU) after being applied by foliar sprays onto soybean plants (variety S20-G7)—grown in controlled environment plant growth chambers. All chemicals were applied using an emulsifiable concentrate (EC) formulation that was diluted with water containing additional surfactant (EXTRAVON 1 g/20 L) to the indicated concentrations. Plant WU was assessed by multiple pot weighing processes before and after application of the chemicals at the indicated times (expressed in days after application (DAA)). The WU data before application was used to correct for differences in water use due to non-treatment effects (e.g. due to differences in plant size). The results are expressed compared to negative control treatment (water with EXTRAVON 1 g/20 L).
Application of the chemicals (0 DAA) takes place approximately between 8 to 9:30 a.m. […] The cumulative total WU (0-2 DAA) is calculated by summing the WU data mentioned above.

[4] = tested on: corn plants (variety NK OCTET); experiment: Water use (WU) of corn plants after foliar spray; format: in vivo; conditions: foliar spray at 500 μM, vs negative control
[5] = molecular target: PYR1-HAB1 (Arabidopsis thaliana (Mouse-ear cress), UniProt O49686); experiment: PP2C activity assay, PYR1-HAB1; format: biochemical; conditions: 100 nM PP2C, 200 nM PYR/PYL protein, 4-nitrophenyl phosphate substrate; read-out: IC50 of inhibition of PYR1-HAB1
From the text: as §1, §2, §3, §4

[6] = tested on: Arabidopsis seeds; experiment: Arabidopsis germination inhibition analysis; format: in vivo; conditions: assessed after 3 days at 22° C. in the dark
Experimental: To analyse the effect of compounds on inhibition of germination, Arabidopsis seeds after-ripened for about 4 weeks were surface-sterilized with a solution containing 5% NaClO and 0.05% Tween-20 for 10 minutes, and rinsed with water four times. Sterilized seeds were suspended with 0.1% agar and sowed on 0.8% solidified agar medium containing ½ Murashige and Skoog (MS) salts (Sigma-Aldrich) in the presence of the relevant treatment, stored at 4° C. for 4 days, and then transferred to 22° C. under the dark conditions. Germination was assessed after 3 days.

PYR1-HAB1, sequence (O49686 whole entry, looked up): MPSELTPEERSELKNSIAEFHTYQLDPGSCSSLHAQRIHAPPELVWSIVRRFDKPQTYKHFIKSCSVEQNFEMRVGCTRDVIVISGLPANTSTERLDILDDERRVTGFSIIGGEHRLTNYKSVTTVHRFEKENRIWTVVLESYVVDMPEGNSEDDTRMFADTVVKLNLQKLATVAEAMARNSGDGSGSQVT
PYR1-HAB1, sequence (Q9CAJ0 whole entry partner, looked up): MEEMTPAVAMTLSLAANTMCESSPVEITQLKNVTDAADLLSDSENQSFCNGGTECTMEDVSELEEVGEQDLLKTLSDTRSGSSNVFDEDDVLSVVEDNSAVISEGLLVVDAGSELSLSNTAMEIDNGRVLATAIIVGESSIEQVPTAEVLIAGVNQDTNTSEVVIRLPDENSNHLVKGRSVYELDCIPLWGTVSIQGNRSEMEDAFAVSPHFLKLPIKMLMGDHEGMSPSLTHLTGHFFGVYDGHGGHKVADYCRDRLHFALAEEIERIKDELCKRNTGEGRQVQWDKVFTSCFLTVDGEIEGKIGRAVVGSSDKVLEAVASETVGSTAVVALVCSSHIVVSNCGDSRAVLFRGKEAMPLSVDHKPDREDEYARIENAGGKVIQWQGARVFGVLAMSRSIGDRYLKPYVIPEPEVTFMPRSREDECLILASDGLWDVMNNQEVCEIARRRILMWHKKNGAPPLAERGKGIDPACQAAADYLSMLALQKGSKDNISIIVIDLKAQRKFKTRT
PYL2-HAB1, sequence (O80992 whole entry, looked up): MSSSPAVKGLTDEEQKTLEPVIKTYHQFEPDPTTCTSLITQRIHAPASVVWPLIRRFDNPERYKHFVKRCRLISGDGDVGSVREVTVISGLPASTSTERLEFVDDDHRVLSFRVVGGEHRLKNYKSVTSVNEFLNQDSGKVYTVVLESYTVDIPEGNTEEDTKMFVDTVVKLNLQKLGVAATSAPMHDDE
PYL2-HAB1, sequence (Q9CAJ0 whole entry partner, looked up): as the sequence (Q9CAJ0 whole entry partner, looked up) above

Compound | Total % WU 0 to 2 DAA [1] [%] | % WU 0 DAA AM [1] [%] | % WU 0 DAA PM [1] [%] | % WU 1 DAA AM [1] [%] | % WU 1 DAA PM [1] [%] | % WU 2 DAA AM [1] [%] | IC50 [2] [µM] | % WU 2 DAA PM [3] [%] | Total % WU 0 to 2 DAA [3] [%] | % WU 2 DAA PM [4] [%] | IC50 [5] [µM] | % germination at 1 μM [6] [%] | % germination at 5 μM [6] [%]
CCCN1C(=O)CCc2cc(NS(=O)(=O)Cc3ccc(C4CC4)cc3)ccc21 [Compound 1.004, 1-(4-cyclopropylphenyl)-N-(2-oxo-1-propyl-3,4-dihydroquinolin-6-yl)methanesulfonamide] | −11.8 | −17.9 | −12.4 | −12.4 | −12.1 | −9.8 | 0.177 | −12.9 | −25 | −10.2 | 0.051 | – | –
CCN1C(=O)CC(C)c2cc(NS(=O)(=O)Cc3ccc(C4CC4)cc3)ccc21 (stereo not shown) [Compound 1.178, 1-(4-cyclopropylphenyl)-N-(1-ethyl-4-methyl-2-oxo-3,4-dihydroquinolin-6-yl)methanesulfonamide] | −9.7 | −18.5 | −13 | −11.2 | −9.2 | −6.5 | – | −36.5 | −45.4 | −5.8 | – | – | –
CCN1C(=O)CCc2cc(NS(=O)(=O)Cc3ccc(C4CC4)cc3)cc(F)c21 [Compound 1.213, 1-(4-cyclopropylphenyl)-N-(1-ethyl-8-fluoro-2-oxo-3,4-dihydroquinolin-6-yl)methanesulfonamide] | −11.4 | −18.2 | −15.5 | −13.4 | −11.2 | −7.9 | 0.244 | −38.7 | −45.8 | −7 | 0.021 | – | –
CCN1C(=O)CC(C)c2cc(NS(=O)(=O)Cc3ccc(C4CC4)cc3)cc(F)c21 (stereo not shown) [Compound 1.220, 1-(4-cyclopropylphenyl)-N-(1-ethyl-8-fluoro-4-methyl-2-oxo-3,4-dihydroquinolin-6-yl)methanesulfonamide] | −17.8 | −32.6 | −35.1 | −18.2 | −14.1 | −8.7 | 0.016 | −44.6 | −50.5 | −9 | 0.071 | – | –
CCCN1C(=O)CCc2cc(NS(=O)(=O)Cc3ccc(C4CCC4)cc3)ccc21 [Compound 5.004, 1-(4-cyclobutylphenyl)-N-(2-oxo-1-propyl-3,4-dihydroquinolin-6-yl)methanesulfonamide] | −4.9 | −8.9 | −8.8 | −5.6 | −5.9 | −1.7 | – | 3.9 | −3 | −2.3 | – | – | –
CCCN1C(=O)CCc2cc(NS(=O)(=O)Cc3ccc(C)cc3)ccc21 [drawing 28, reference compound] | – | – | – | – | – | – | – | – | – | – | – | 46 | 0
CCCN1C(=O)CCc2cc(NS(=O)(=O)Cc3ccc(C4CC4)cc3)ccc21 [drawing 29] | – | – | – | – | – | – | – | – | – | – | – | 42 | 0
